Consider 20 compounds from ChEMBL document CHEMBL1133163, “AMP deaminase inhibitors. 4. Further N3-substituted coformycin aglycon analogues: N3-alkylmalonates as ribose 5'-monophosphate mimetics” (J Med Chem, 2000).

The target in one assay is T1, AMP deaminase 3 (Homo sapiens, UniProt Q01432).
T1 sequence (Q01432 whole entry): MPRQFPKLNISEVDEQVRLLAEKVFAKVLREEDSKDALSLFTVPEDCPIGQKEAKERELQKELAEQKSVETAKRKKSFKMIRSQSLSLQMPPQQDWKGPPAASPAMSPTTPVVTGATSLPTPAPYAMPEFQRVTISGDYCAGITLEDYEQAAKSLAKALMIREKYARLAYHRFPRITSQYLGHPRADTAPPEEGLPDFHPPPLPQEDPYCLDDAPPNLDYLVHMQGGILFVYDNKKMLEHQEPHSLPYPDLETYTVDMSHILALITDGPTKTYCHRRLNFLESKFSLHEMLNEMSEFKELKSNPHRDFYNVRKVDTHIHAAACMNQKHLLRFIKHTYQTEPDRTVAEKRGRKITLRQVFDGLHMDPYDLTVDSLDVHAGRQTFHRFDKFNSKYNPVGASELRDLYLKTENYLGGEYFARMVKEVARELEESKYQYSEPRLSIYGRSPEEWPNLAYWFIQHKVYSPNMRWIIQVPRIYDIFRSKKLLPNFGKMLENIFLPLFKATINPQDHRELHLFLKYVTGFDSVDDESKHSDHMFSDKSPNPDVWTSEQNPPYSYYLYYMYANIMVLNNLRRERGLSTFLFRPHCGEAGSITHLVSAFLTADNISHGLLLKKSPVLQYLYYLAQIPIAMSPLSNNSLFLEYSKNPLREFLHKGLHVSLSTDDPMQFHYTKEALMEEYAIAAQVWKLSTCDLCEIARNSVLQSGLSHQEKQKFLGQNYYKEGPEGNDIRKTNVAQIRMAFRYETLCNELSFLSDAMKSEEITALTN
As to the kind of experiment: Inhibitory activity against porcine heart or recombinant human E-type AMPDA.

Another assay concerns the target T2, Adenosine deaminase (Bos taurus, UniProt P56658).
T2 sequence (P56658 whole entry): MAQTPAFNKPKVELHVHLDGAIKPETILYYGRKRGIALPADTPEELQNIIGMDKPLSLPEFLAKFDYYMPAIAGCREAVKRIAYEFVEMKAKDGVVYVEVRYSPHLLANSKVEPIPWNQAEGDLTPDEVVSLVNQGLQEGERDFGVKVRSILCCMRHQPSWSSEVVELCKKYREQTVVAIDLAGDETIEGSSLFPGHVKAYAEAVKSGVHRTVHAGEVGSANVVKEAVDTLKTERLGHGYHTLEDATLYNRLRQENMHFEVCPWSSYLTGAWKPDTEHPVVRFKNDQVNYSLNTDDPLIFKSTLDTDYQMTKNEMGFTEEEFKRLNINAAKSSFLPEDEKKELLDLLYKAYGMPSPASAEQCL
As to the kind of experiment: Inhibitory activity against calf intestinal Adenosine deaminase (ADA).

As a reminder, the Ki is the dissociation constant of the complex between target and ligand, obtained from inhibition or displacement.

As to `CC(CCCCn1cnc2c1NC=NCC2O)(C(=O)O)C(=O)O` (centres undefined), the Ki was 6 µM at AMP deaminase 3 and above 7.5 µM on Adenosine deaminase. On to `CC(CCCCn1cnc2c1NC=NCC2O)(C(=O)OCc1ccccc1)C(=O)OCc1ccccc1` (centres undefined), for which the inhibition constant Ki at AMP deaminase 3 is 5.2 µM; at Adenosine deaminase, above 7.5 µM. For `CCOC(=O)C(CCCCn1cnc2c1N=CNCC2O)(Cc1ccccc1)C(=O)OCC` (centres undefined) the same measures were 2.6 µM and above 7.5 µM. Turning to `CCOC(=O)C(CCCCn1cnc2c1N=CNCC2O)(Cc1ccccc1C(F)(F)F)C(=O)OCC` (centres undefined), the Ki is 0.36 µM at AMP deaminase 3 and above 7.5 µM at Adenosine deaminase.

For the compound `CC(CCCCn1cnc2c1N=CNCC2O)(C(=O)O)C(=O)NCCc1ccccc1` (centres undefined), the Ki at AMP deaminase 3 was 2.1 µM; on Adenosine deaminase it was above 7.5 µM.

In the case of `CC(CCCCn1cnc2c1NC=NCC2O)(C(N)=O)C(=O)O` (centres undefined), the values for the Ki on AMP deaminase 3 and at Adenosine deaminase were 7.8 µM and above 7.5 µM, respectively.

As for `O=C(O)C(CCCCn1cnc2c1NC=NCC2O)(Cc1ccccc1C(F)(F)F)C(=O)O` (centres undefined), the inhibition constant (Ki) at AMP deaminase 3 was 0.041 µM; at Adenosine deaminase, above 7.5 µM.

As to `O=C(O)C(CCCCn1cnc2c1NC=NCC2O)(Cc1ccc(C(F)(F)F)cc1)C(=O)O` (centres undefined), the values for the Ki on AMP deaminase 3 and on Adenosine deaminase were 0.04 µM and above 7.5 µM, respectively. On the same counts, the results for `CC(CCCCn1cnc2c1NC=NCC2O)(C(=O)O)C(=O)NC1CCCCC1` (centres undefined) are 5.2 µM and above 7.5 µM.

For `O=C(O)C(CCCCn1cnc2c1NC=NCC2O)C(=O)O` (centres undefined), the inhibition constant (Ki) is 5.1 µM at AMP deaminase 3 and above 7.5 µM on Adenosine deaminase. On the same counts, the results for `CC(CCCCn1cnc2c1NC=NCC2O)(Cc1cccc(C(F)(F)F)c1)C(=O)O` (centres undefined) are 1.2 µM and above 7.5 µM. As to `O=C(O)CCCCCn1cnc2c1N=CNCC2O` (centres undefined), the inhibitory constant (Ki) on AMP deaminase 3 is 4.2 µM.

Consider `O=C(OCc1ccccc1)C(CCCCn1cnc2c1N=CNCC2O)(Cc1ccccc1C(F)(F)F)C(=O)OCc1ccccc1` (centres undefined), for which the results for the Ki on AMP deaminase 3 and on Adenosine deaminase were 0.25 µM and above 7.5 µM, respectively. On the same counts, the results for `O=C(O)C(CCCCn1cnc2c1NC=NCC2O)(Cc1cccc(C(F)(F)F)c1)C(=O)O` (centres undefined) are 0.029 µM and above 7.5 µM. For `CC(CCCCn1cnc2c1NC=NCC2O)(C(=O)O)C(=O)OCc1ccccc1` (centres undefined) the same measures were 0.9 µM and above 7.5 µM.

With `CCOC(=O)C(C)(CCCCn1cnc2c1NC=NCC2O)C(=O)OCC` (centres undefined), the inhibition constant (Ki) on AMP deaminase 3 is 44.8 µM; at Adenosine deaminase, above 500 µM.

For the compound `O=C(O)C(CCCCn1cnc2c1N=CNCC2O)C(=O)NCc1ccc(Cl)cc1` (centres undefined), the inhibition constant Ki on AMP deaminase 3 was 1.3 µM; at Adenosine deaminase it was above 7.5 µM. On the same counts, the results for `O=C(O)C(CCCCn1cnc2c1N=CNCC2O)C(=O)NCc1ccccc1` (centres undefined) are 2.4 µM and above 7.5 µM. Consider `O=C(O)C(CCCCn1cnc2c1N=CNCC2O)C(=O)OCc1ccccc1` (centres undefined), for which the Ki on AMP deaminase 3 is 0.36 µM; at Adenosine deaminase, above 7.5 µM.

For `O=C(O)C(CCCCn1cnc2c1N=CNCC2O)(Cc1ccccc1)C(=O)O` (centres undefined), the inhibition constant (Ki) was 0.17 µM at AMP deaminase 3 and above 7.5 µM on Adenosine deaminase.
